Measured values from PubChem BioAssay AID2060341 (Molecular Pharmacology Branch, DTP, NCI, 2025).
Several values for one entry are separate records, joined by “and”; a condition that tells them apart may be missing. Equal entries are not always repeated.

System: 327498-153-R-J2-PDC multicell spheroid viability
Assay: Anticancer human tumor 327498-153-R-J2-PDC patient-derived uterine carcinosarcoma cell line growth inhibition [IpAb]
Settings: for viability, T/C: stronger effect = lower value
Method in brief: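 Multi-cell spheroids of 60% tumour cells, 25% HUVEC and 15% MSC in ultra-low-attachment U-bottom wells, treated with agents combined with ipatasertib or abemaciclib. Half-log ranges top out near clinical Cmax, or 10 microM when Cmax is unknown.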

[1] = curve of first compound, second compound 0.01 µM
[2] = curve of first compound, second compound 0.0316 µM
[3] = curve of first compound, second compound 0.1 µM
[4] = curve of first compound, second compound 0.316 µM
[5] = curve of first compound, second compound 1 µM
[6] = second compound 0.01 µM, first compound 0.0316 µM
[7] = second compound 0.01 µM, first compound 0.1 µM
[8] = second compound 0.01 µM, first compound 0.316 µM
[9] = second compound 0.01 µM, first compound 1 µM
[10] = second compound 0.01 µM, first compound 3.16 µM
[11] = second compound 0.01 µM, first compound 10 µM
[12] = second compound 0.0316 µM, first compound 0.0316 µM
[13] = second compound 0.0316 µM, first compound 0.1 µM
[14] = second compound 0.0316 µM, first compound 0.316 µM
[15] = second compound 0.0316 µM, first compound 1 µM
[16] = second compound 0.0316 µM, first compound 3.16 µM
[17] = second compound 0.0316 µM, first compound 10 µM
[18] = second compound 0.1 µM, first compound 0.0316 µM
[19] = second compound 0.1 µM, first compound 0.1 µM
[20] = second compound 0.1 µM, first compound 0.316 µM
[21] = second compound 0.1 µM, first compound 1 µM
[22] = second compound 0.1 µM, first compound 3.16 µM
[23] = second compound 0.1 µM, first compound 10 µM
[24] = second compound 0.316 µM, first compound 0.0316 µM
[25] = second compound 0.316 µM, first compound 0.1 µM
[26] = second compound 0.316 µM, first compound 0.316 µM
[27] = second compound 0.316 µM, first compound 1 µM
[28] = second compound 0.316 µM, first compound 3.16 µM
[29] = second compound 0.316 µM, first compound 10 µM
[30] = second compound 1 µM, first compound 0.0316 µM
[31] = second compound 1 µM, first compound 0.1 µM
[32] = second compound 1 µM, first compound 0.316 µM
[33] = second compound 1 µM, first compound 1 µM
[34] = second compound 1 µM, first compound 3.16 µM
[35] = second compound 1 µM, first compound 10 µM
[36] = second compound 0.1 µM, first compound 0.000949 µM
[37] = second compound 0.1 µM, first compound 0.003 µM
[38] = second compound 0.1 µM, first compound 0.00949 µM
[39] = second compound 0.1 µM, first compound 0.03 µM
[40] = second compound 0.1 µM, first compound 0.0949 µM
[41] = second compound 0.1 µM, first compound 0.3 µM
[42] = second compound 0.316 µM, first compound 0.000949 µM
[43] = second compound 0.316 µM, first compound 0.003 µM
[44] = second compound 0.316 µM, first compound 0.00949 µM
[45] = second compound 0.316 µM, first compound 0.03 µM
[46] = second compound 0.316 µM, first compound 0.0949 µM
[47] = second compound 0.316 µM, first compound 0.3 µM
[48] = second compound 1 µM, first compound 0.000949 µM
[49] = second compound 1 µM, first compound 0.003 µM
[50] = second compound 1 µM, first compound 0.00949 µM
[51] = second compound 1 µM, first compound 0.03 µM
[52] = second compound 1 µM, first compound 0.0949 µM
[53] = second compound 1 µM, first compound 0.3 µM
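Further: spheroids exposed to agents for 7 days.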
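Wherever viability, T/C is given: 100% = DMSO vehicle control viability.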

C=CC(=O)N1CCN(c2nc(=O)n(-c3c(C)ccnc3C(C)C)c3nc(-c4c(O)cccc4F)c(F)cc23)C(C)C1 (configuration not stated) + CCN1CCN(Cc2ccc(Nc3ncc(F)c(-c4cc(F)c5nc(C)n(C(C)C)c5c4)n3)nc2)CC1
IC50 [1]: 209 nM
IC50 [2]: < 31.6 nM
IC50 [3]: < 31.6 nM
IC50 [4]: < 31.6 nM
IC50 [5]: < 31.6 nM
viability, T/C [6]: 63.7%
viability, T/C [7]: 52.8%
viability, T/C [8]: 49%
viability, T/C [9]: 44.5%
viability, T/C [10]: 43%
viability, T/C [11]: 42.2%
viability, T/C [12]: 50.3%
viability, T/C [13]: 42.7%
viability, T/C [14]: 40%
viability, T/C [15]: 41.5%
viability, T/C [16]: 38%
viability, T/C [17]: 38.4%
viability, T/C [18]: 42.5%
viability, T/C [19]: 38.1%
viability, T/C [20]: 36.9%
viability, T/C [21]: 30.7%
viability, T/C [22]: 38.6%
viability, T/C [23]: 35.5%
viability, T/C [24]: 35.7%
viability, T/C [25]: 33.2%
viability, T/C [26]: 31.5%
viability, T/C [27]: 32.8%
viability, T/C [28]: 36.5%
viability, T/C [29]: 36.8%
viability, T/C [30]: 37%
viability, T/C [31]: 36.5%
viability, T/C [32]: 29.1%
viability, T/C [33]: 35.5%
viability, T/C [34]: 38.1%
viability, T/C [35]: 44.1%

CC(=O)c1c(C)c2cnc(Nc3ccc(N4CCNCC4)cn3)nc2n(C2CCCC2)c1=O + CCN1CCN(Cc2ccc(Nc3ncc(F)c(-c4cc(F)c5nc(C)n(C(C)C)c5c4)n3)nc2)CC1
IC50 [1]: > 300 nM
IC50 [2]: > 300 nM
IC50 [3]: > 300 nM
IC50 [4]: > 300 nM
IC50 [5]: > 300 nM
viability, T/C (second compound 0.01 µM, first compound 0.000949 µM): 91.3%
viability, T/C (second compound 0.01 µM, first compound 0.003 µM): 88.8%
viability, T/C (second compound 0.01 µM, first compound 0.00949 µM): 91%
viability, T/C (second compound 0.01 µM, first compound 0.03 µM): 82.3%
viability, T/C (second compound 0.01 µM, first compound 0.0949 µM): 70.7%
viability, T/C (second compound 0.01 µM, first compound 0.3 µM): 59.1%
viability, T/C (second compound 0.0316 µM, first compound 0.000949 µM): 77.1%
viability, T/C (second compound 0.0316 µM, first compound 0.003 µM): 74.8%
viability, T/C (second compound 0.0316 µM, first compound 0.00949 µM): 72.8%
viability, T/C (second compound 0.0316 µM, first compound 0.03 µM): 65%
viability, T/C (second compound 0.0316 µM, first compound 0.0949 µM): 59.9%
viability, T/C (second compound 0.0316 µM, first compound 0.3 µM): 54.8%
viability, T/C [36]: 66.2%
viability, T/C [37]: 61%
viability, T/C [38]: 67.3%
viability, T/C [39]: 56.9%
viability, T/C [40]: 59.9%
viability, T/C [41]: 57.1%
viability, T/C [42]: 58.3%
viability, T/C [43]: 58.2%
viability, T/C [44]: 62%
viability, T/C [45]: 54.6%
viability, T/C [46]: 56.4%
viability, T/C [47]: 60.6%
viability, T/C [48]: 55.5%
viability, T/C [49]: 57.9%
viability, T/C [50]: 62%
viability, T/C [51]: 54.1%
viability, T/C [52]: 57.6%
viability, T/C [53]: 56.2%

C=CCn1c(=O)c2cnc(Nc3ccc(N4CCN(C)CC4)cc3)nc2n1-c1cccc(C(C)(C)O)n1 + CCN1CCN(Cc2ccc(Nc3ncc(F)c(-c4cc(F)c5nc(C)n(C(C)C)c5c4)n3)nc2)CC1
IC50 [1]: 318 nM
IC50 [2]: 261 nM
IC50 [3]: 222 nM
IC50 [4]: 250 nM
IC50 [5]: 313 nM
viability, T/C [6]: 94.3%
viability, T/C [7]: 88.5%
viability, T/C [8]: 50.6%
viability, T/C [9]: 5.09%
viability, T/C [10]: 4.75%
viability, T/C [11]: 5.85%
viability, T/C [12]: 84.4%
viability, T/C [13]: 76.9%
viability, T/C [14]: 44.9%
viability, T/C [15]: 6.81%
viability, T/C [16]: 5.01%
viability, T/C [17]: 6.96%
viability, T/C [18]: 69.1%
viability, T/C [19]: 68.5%
viability, T/C [20]: 41.9%
viability, T/C [21]: 11.1%
viability, T/C [22]: 7.8%
viability, T/C [23]: 9.75%
viability, T/C [24]: 66.2%
viability, T/C [25]: 61.1%
viability, T/C [26]: 47.3%
viability, T/C [27]: 24%
viability, T/C [28]: 14.6%
viability, T/C [29]: 14.8%
viability, T/C [30]: 60.6%
viability, T/C [31]: 58.6%
viability, T/C [32]: 50.4%
viability, T/C [33]: 31.8%
viability, T/C [34]: 20.7%
viability, T/C [35]: 14.9%

CC(C)n1nc(-c2ccc3oc(N)nc3c2)c2c(N)ncnc21
viability, T/C (compound 0.000316 µM): 103% and 88.9%
viability, T/C (compound 0.001 µM): 96.1% and 101%
viability, T/C (compound 0.00316 µM): 81.9% and 88%
viability, T/C (compound 0.01 µM): 54.3% and 52.7%
viability, T/C (compound 0.0316 µM): 31.7% and 27.2%
viability, T/C (compound 0.1 µM): 19.6% and 18.2%
IC50 (curve of compound): 12.7 nM and 11.5 nM

Cc1nc(NC(=O)N2CCCC2C(N)=O)sc1-c1ccnc(C(C)(C)C(F)(F)F)c1 (configuration not stated) + CCN1CCN(Cc2ccc(Nc3ncc(F)c(-c4cc(F)c5nc(C)n(C(C)C)c5c4)n3)nc2)CC1
IC50 [1]: 6390 nM
IC50 [2]: 1040 nM
IC50 [3]: 442 nM
IC50 [4]: 262 nM
IC50 [5]: 150 nM
viability, T/C [6]: 91.6%
viability, T/C [7]: 85.8%
viability, T/C [8]: 77%
viability, T/C [9]: 68.2%
viability, T/C [10]: 63%
viability, T/C [11]: 42.5%
viability, T/C [12]: 69.7%
viability, T/C [13]: 69.3%
viability, T/C [14]: 63.3%
viability, T/C [15]: 46.4%
viability, T/C [16]: 41.3%
viability, T/C [17]: 27.3%
viability, T/C [18]: 61.8%
viability, T/C [19]: 58.5%
viability, T/C [20]: 50.4%
viability, T/C [21]: 46%
viability, T/C [22]: 36.9%
viability, T/C [23]: 26%
viability, T/C [24]: 58%
viability, T/C [25]: 57.2%
viability, T/C [26]: 47.8%
viability, T/C [27]: 42.6%
viability, T/C [28]: 35.3%
viability, T/C [29]: 28.1%
viability, T/C [30]: 54%
viability, T/C [31]: 55.7%
viability, T/C [32]: 43.5%
viability, T/C [33]: 41.1%
viability, T/C [34]: 34.8%
viability, T/C [35]: 25.9%

CC(=O)c1c(C)c2cnc(Nc3ccc(N4CCNCC4)cn3)nc2n(C2CCCC2)c1=O + CC(C)NCC(C(=O)N1CCN(c2ncnc3c2C(C)CC3O)CC1)c1ccc(Cl)cc1
IC50 [3]: > 300 nM
IC50 [4]: 45.7 nM
IC50 [5]: 7.23 nM
IC50 (curve of first compound, second compound 3.16 µM): 1.34 nM
IC50 (curve of first compound, second compound 10 µM): < 0.949 nM
viability, T/C [36]: 96.4%
viability, T/C [37]: 101%
viability, T/C [38]: 91.2%
viability, T/C [39]: 68.8%
viability, T/C [40]: 65.9%
viability, T/C [41]: 55.4%
viability, T/C [42]: 81.6%
viability, T/C [43]: 71.2%
viability, T/C [44]: 68.2%
viability, T/C [45]: 51.8%
viability, T/C [46]: 44.1%
viability, T/C [47]: 41.5%
viability, T/C [48]: 61.5%
viability, T/C [49]: 57.5%
viability, T/C [50]: 48%
viability, T/C [51]: 34.1%
viability, T/C [52]: 34.5%
viability, T/C [53]: 31.3%
viability, T/C (second compound 3.16 µM, first compound 0.000949 µM): 51.7%
viability, T/C (second compound 3.16 µM, first compound 0.003 µM): 46.2%
viability, T/C (second compound 3.16 µM, first compound 0.00949 µM): 35.2%
viability, T/C (second compound 3.16 µM, first compound 0.03 µM): 33.4%
viability, T/C (second compound 3.16 µM, first compound 0.0949 µM): 25%
viability, T/C (second compound 3.16 µM, first compound 0.3 µM): 24.6%
viability, T/C (second compound 10 µM, first compound 0.000949 µM): 33.4%
viability, T/C (second compound 10 µM, first compound 0.003 µM): 36.7%
viability, T/C (second compound 10 µM, first compound 0.00949 µM): 28.1%
viability, T/C (second compound 10 µM, first compound 0.03 µM): 20.9%
viability, T/C (second compound 10 µM, first compound 0.0949 µM): 21.9%
viability, T/C (second compound 10 µM, first compound 0.3 µM): 21.9%
